Data on eleven compounds can be found in ChEMBL document CHEMBL1201862, “PubChem BioAssay data set” (2004).

Test systems include A498; A549; ACHN; CCRF-CEM; COLO 205; HL-60; Hs-578T; LOX IMVI; MCF7; MDA-MB-435; NCI-H226; OVCAR-4; OVCAR-5; SF-268; SN12C; SW-620; U-251; UACC-62; UO-31; HCC 2998.
What all share (assay): NCI-60 cell line screen, 48 h

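48-hour exposure; five concentrations; linearly interpolated endpoints. GI50 is the concentration that inhibits growth by half.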 Calls of active or inactive are those of the source. Cut-off read from the data, not from the text of the source: active = GI50 up to about 1.1 µM and inactive = higher.

For `CC(C)(C)c1ccc2c(c1)C(=O)c1ccccc1C2=O`, the GI50 is 41.3 µM (inactive) with A498; 38.6 µM (inactive) in the assay on A549; 37.9 µM (inactive) in the assay with ACHN; 57.1 µM (inactive) in the assay with CCRF-CEM; 25 µM (inactive) in the assay with COLO 205; 64.6 µM (inactive) in the assay with HL-60. The GI50 with Hs-578T was 90.2 µM (inactive); in the assay with LOX IMVI it was 41.4 µM (inactive); in the assay on MCF7 it was 20.6 µM (inactive); with MDA-MB-435, 35.9 µM (inactive); in the assay on NCI-H226, 35.5 µM (inactive); with OVCAR-4 it was 33.6 µM (inactive). Further, the GI50 in the assay on OVCAR-5 was 82.6 µM (inactive); in the assay with SF-268, 39.4 µM (inactive); with SN12C, 85.3 µM (inactive); in the assay on SW-620, > 100 µM (inactive); in the assay with U-251, 50 µM (inactive); in the assay on UACC-62, 42 µM (inactive). Further, the GI50 with UO-31 was > 100 µM (inactive).
As to `Cc1cc(NS(=O)(=O)c2ccc(Nc3c4ccccc4nc4c(C(=O)NC(CO)(CO)CO)cccc34)cc2)no1`, the GI50 in the assay on A498 is 47.1 µM (inactive); with A549 it was 48.1 µM (inactive); with ACHN, 32.7 µM (inactive); with CCRF-CEM, 19.4 µM (inactive); with COLO 205, 42.4 µM (inactive); with HCC 2998, 16.9 µM (inactive). Also, the GI50 in the assay on HL-60 is 34.5 µM (inactive); with Hs-578T, 25.1 µM (inactive); in the assay with LOX IMVI it was 18.2 µM (inactive); with MCF7 it was 23.3 µM (inactive); in the assay on MDA-MB-435, 53.5 µM (inactive); in the assay with OVCAR-4, 48.8 µM (inactive). Besides, the GI50 in the assay on OVCAR-5 was 62.8 µM (inactive); with SF-268 it was 21.3 µM (inactive); with SN12C, 23.1 µM (inactive); in the assay with SW-620, 31 µM (inactive); with U-251 it was 34.2 µM (inactive); with UACC-62 it was 22 µM (inactive). The GI50 with UO-31 is 48.6 µM (inactive).
As to `C=C1C(=O)OC2C1CCC(C)C1(O)C=CC(=O)C21C` (stereo not given), the GI50 was 5.46 µM (inactive) in the assay with A498; > 10 µM (inactive) with A549; 5.66 µM (inactive) in the assay on ACHN; 2.73 µM (inactive) in the assay with CCRF-CEM; > 10 µM (inactive) in the assay on COLO 205; > 10 µM (inactive) in the assay with HCC 2998. Besides, the GI50 with HL-60 was 2.39 µM (inactive); with Hs-578T, > 10 µM (inactive); in the assay with LOX IMVI it was > 10 µM (inactive); in the assay on MCF7 it was > 10 µM (inactive); in the assay on MDA-MB-435, > 10 µM (inactive); in the assay with NCI-H226, > 10 µM (inactive). The GI50 in the assay with OVCAR-4 was 7.6 µM (inactive); in the assay on SF-268, > 10 µM (inactive); in the assay on SN12C, > 10 µM (inactive); in the assay with SW-620 it was 3.44 µM (inactive); in the assay on U-251 it was > 10 µM (inactive); with UACC-62, 6.68 µM (inactive). Also, the GI50 in the assay with UO-31 was 3.24 µM (inactive).
Take `CSc1[nH]nc(N)c1C(=O)Nc1ccc(Cl)cc1`: the GI50 was 73.3 µM (inactive) in the assay on A498; 48.4 µM (inactive) in the assay on A549; 27 µM (inactive) in the assay with CCRF-CEM; 99.5 µM (inactive) in the assay with COLO 205; 99.8 µM (inactive) in the assay on HCC 2998; 34.8 µM (inactive) in the assay on HL-60. Besides, the GI50 was > 100 µM (inactive) in the assay with Hs-578T; 76.9 µM (inactive) with LOX IMVI; 84.7 µM (inactive) with MCF7; > 100 µM (inactive) in the assay with MDA-MB-435; 25.6 µM (inactive) in the assay on NCI-H226; 50.5 µM (inactive) with OVCAR-4. For the same compound, the GI50 was > 100 µM (inactive) in the assay on OVCAR-5; 79.6 µM (inactive) with SF-268; > 100 µM (inactive) with SN12C; 57.3 µM (inactive) in the assay with SW-620; 92.3 µM (inactive) with U-251; 90.6 µM (inactive) in the assay on UACC-62. The GI50 with UO-31 was 33 µM (inactive).
Take `O=C(CC(Cl)(Cl)C(Cl)(Cl)Cl)c1ccccc1`: the GI50 is 18.4 µM (inactive) in the assay on A498; 17.8 µM (inactive) in the assay with A549; 2.27 µM (inactive) in the assay with ACHN; 3.24 µM (inactive) with COLO 205; 8.99 µM (inactive) with HL-60; 3.76 µM (inactive) with Hs-578T. The GI50 with LOX IMVI is 1.83 µM (inactive); with MCF7, 3.65 µM (inactive); in the assay with MDA-MB-435, 2.23 µM (inactive); in the assay on NCI-H226 it was 3.63 µM (inactive); with OVCAR-4, 2.22 µM (inactive); in the assay on OVCAR-5, 11.2 µM (inactive). Also, the GI50 in the assay on SF-268 was 11.7 µM (inactive); with SN12C, 0.59 µM (active); in the assay with SW-620, 3.51 µM (inactive); in the assay on U-251 it was 4.7 µM (inactive); in the assay on UACC-62 it was 2.74 µM (inactive); with UO-31, 3.94 µM (inactive).
Take `C=C1CN(C(=O)c2cc3cc(OC)c(OC)c(OC)c3[nH]2)c2cc([N+](=O)[O-])ccc21`: the GI50 is 64.4 µM (inactive) with A498; > 100 µM (inactive) in the assay on A549; > 100 µM (inactive) in the assay with COLO 205; > 100 µM (inactive) in the assay on HCC 2998; > 100 µM (inactive) in the assay with HL-60; 4.47 µM (inactive) in the assay with Hs-578T. Besides, the GI50 in the assay on LOX IMVI, in the assay with MCF7, with MDA-MB-435, in the assay on NCI-H226, with OVCAR-4 and in the assay with OVCAR-5 was > 100 µM (inactive) each time. Besides, the GI50 with SF-268 was 15.5 µM (inactive); in the assay with SN12C, > 100 µM (inactive); in the assay with SW-620, > 100 µM (inactive); in the assay on U-251 it was 19.1 µM (inactive); in the assay with UACC-62, > 100 µM (inactive); with UO-31, > 100 µM (inactive).
For the compound `CC1(C)N/C(=C\[N+](=O)[O-])C(C)(C)N1O`, the GI50 with A498, with A549, in the assay on ACHN, with CCRF-CEM, in the assay on COLO 205 and in the assay with HCC 2998 was > 10 µM (inactive) each time. Further, the GI50 in the assay on HL-60, in the assay with Hs-578T, in the assay with LOX IMVI, in the assay with MCF7, with MDA-MB-435 and in the assay with NCI-H226 was > 10 µM (inactive) each time. Further, the GI50 in the assay with OVCAR-4, in the assay with OVCAR-5, in the assay with SF-268, with SN12C, in the assay with SW-620 and with U-251 was > 10 µM (inactive) each time. For the same compound, in the assay on UACC-62, the GI50 is > 10 µM (inactive).
Take `C#CCn1c2c(c3ccccc3c1=O)C(=O)c1ccccc1-2`: the GI50 in the assay on A498 is 22.7 µM (inactive); in the assay on A549, 13.6 µM (inactive); with CCRF-CEM, > 100 µM (inactive); in the assay with COLO 205 it was 22.4 µM (inactive); in the assay on HL-60, 2.94 µM (inactive); with Hs-578T, 15.8 µM (inactive). In addition, the GI50 is 18.2 µM (inactive) with LOX IMVI; 9.06 µM (inactive) in the assay on MCF7; 67.3 µM (inactive) in the assay with MDA-MB-435; 16.7 µM (inactive) with NCI-H226; 11.4 µM (inactive) with OVCAR-4; 24.7 µM (inactive) with OVCAR-5. In addition, the GI50 was 14 µM (inactive) with SF-268; 11.4 µM (inactive) with SN12C; 23.9 µM (inactive) in the assay on SW-620; 15.2 µM (inactive) in the assay on U-251; 21.4 µM (inactive) in the assay on UACC-62; 2 µM (inactive) in the assay with UO-31.
In the case of `O=C(CCCN1CCc2[nH]c3cc(F)ccc3c2C1)c1ccc(F)cc1`, the GI50 is 11.8 µM (inactive) with A498; 15.8 µM (inactive) in the assay with A549; 13.8 µM (inactive) in the assay with ACHN; 12 µM (inactive) in the assay with CCRF-CEM; 4.84 µM (inactive) in the assay with COLO 205; 3.33 µM (inactive) in the assay on HCC 2998. For the same compound, the GI50 is 11.1 µM (inactive) with HL-60; 10.5 µM (inactive) in the assay with Hs-578T; 3.95 µM (inactive) in the assay with LOX IMVI; 4.59 µM (inactive) in the assay with MCF7; 12.9 µM (inactive) with MDA-MB-435; 18.7 µM (inactive) in the assay with NCI-H226. Moreover, the GI50 with OVCAR-4 was 13.8 µM (inactive); in the assay on OVCAR-5, 12.2 µM (inactive); with SF-268, 13.1 µM (inactive); in the assay with SN12C it was 14.3 µM (inactive); in the assay on SW-620 it was > 100 µM (inactive); in the assay with U-251, 16.3 µM (inactive). Also, the GI50 in the assay on UACC-62 is 12.7 µM (inactive).
As for `CC(C)(C)c1cc(/C=C(\C#N)C(=O)NCCO)cc(C(C)(C)C)c1O`, the GI50 with A498 was 20.3 µM (inactive); with A549, 27.4 µM (inactive); in the assay on ACHN, 27.2 µM (inactive); with CCRF-CEM it was 15.1 µM (inactive); with COLO 205, 20.5 µM (inactive); in the assay with HL-60, 15.7 µM (inactive). Besides, the GI50 in the assay with Hs-578T is 37.8 µM (inactive); in the assay with LOX IMVI, 25.1 µM (inactive); with MCF7, 26.5 µM (inactive); with MDA-MB-435 it was 21.1 µM (inactive); in the assay on NCI-H226, 19.5 µM (inactive); in the assay on OVCAR-4, 17.8 µM (inactive). The GI50 is 24.1 µM (inactive) with OVCAR-5; 31.9 µM (inactive) in the assay with SF-268; 19 µM (inactive) in the assay with SN12C; 28.8 µM (inactive) in the assay on SW-620; 18 µM (inactive) in the assay with U-251; 13.6 µM (inactive) in the assay with UACC-62. In the assay with UO-31, the GI50 was 19.9 µM (inactive).
Turning to `CC(=O)CC(=O)Nc1ccc2ccccc2c1`, the GI50 in the assay with A498 was > 100 µM (inactive); in the assay on A549, > 100 µM (inactive); in the assay on ACHN it was > 100 µM (inactive); in the assay with CCRF-CEM it was 36.8 µM (inactive); in the assay with COLO 205, 35.5 µM (inactive); with HL-60 it was > 100 µM (inactive). For the same compound, the GI50 is > 100 µM (inactive) in the assay with Hs-578T; > 100 µM (inactive) with LOX IMVI; 74.3 µM (inactive) with MCF7; 67.9 µM (inactive) in the assay on MDA-MB-435; > 100 µM (inactive) in the assay on NCI-H226; 29.4 µM (inactive) in the assay on OVCAR-4. For the same compound, the GI50 in the assay with OVCAR-5, in the assay on SF-268, in the assay on SN12C, in the assay on SW-620, in the assay on U-251 and in the assay with UACC-62 was > 100 µM (inactive) in each case.
